Experiment [1] has as its target T1, proteasome in Molt-4 cells (human leukemia) (Homo sapiens, UniProt P20618+P28074).
T1 sequence (P28074 60-263): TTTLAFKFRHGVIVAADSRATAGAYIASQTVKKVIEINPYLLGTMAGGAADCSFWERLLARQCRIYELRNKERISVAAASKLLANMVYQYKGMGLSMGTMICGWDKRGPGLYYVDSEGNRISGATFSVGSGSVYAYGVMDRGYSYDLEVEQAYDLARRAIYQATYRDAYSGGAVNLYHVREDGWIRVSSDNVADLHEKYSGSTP
T1 sequence (P20618 29-241): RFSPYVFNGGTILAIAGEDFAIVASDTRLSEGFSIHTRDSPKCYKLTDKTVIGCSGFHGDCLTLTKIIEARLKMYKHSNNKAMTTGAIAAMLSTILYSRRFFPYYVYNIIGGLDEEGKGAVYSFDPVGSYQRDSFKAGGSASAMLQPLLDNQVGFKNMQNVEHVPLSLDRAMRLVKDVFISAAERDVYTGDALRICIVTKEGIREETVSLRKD
Format: cell-based. The settings on record: assay of Example E, inhibition of MOLT4; read-out: MOLT4 (EC50). The essentials:
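Intact Molt-4 cells (6×10^6 cells/mL) in HEPES-buffered saline were preincubated with inhibitor 15 min at 37 °C, then given cell-permeable MeOSuc-FLF-AFC at 25 μM final.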

Experiment [2] deals with T2, 20S Human Erythrocyte Proteasome (HEP) (Homo sapiens, UniProt P20618+P28074).
T2 construct: 20S Human Erythrocyte Proteasome (HEP), purchased from Immatics Biotechnologies Inc; purchased Immatics Biotechnologies Inc., Tübingen, Germany; host or cells: human erythrocytes (natural source)
Nature of the experiment: Chymotrypsin-like activity of 20S Human Erythrocyte Proteasome (HEP), IC50 determination. Format: biochemical. The settings on record: assay of Example C, inhibition of HEP. The essentials: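 20S proteasome at 0.2 μg/mL (about 0.6 nM catalytic sites) in 20 mM Tris with 0.04% SDS, preincubated 15 min at 37° C with inhibitor before Suc-LLVY-AMC (100 μM final). AMC fluorescence read in the linear range; triplicates, IC50 from concentration series.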

One may read the EC50 as the concentration at which the effect is half-maximal. The IC50 is the concentration needed to halve the response being measured. A higher IC50 goes with weaker potency. `CC(C)C[C@H](NC(=O)[C@H](CCCNC(=N)N[N+](=O)[O-])NC(=O)c1ccc2ccccc2n1)B(O)O` [E.2.18, Boronic acid, [(1R)-1-[[(2S)-5-[[imino(nitroamino)methyl]amino]-2-[(quinoline-2-carbonyl)amino]-1-oxopentyl]amino]-3-methylbutyl]]: in experiment [1], the EC50 fell in the range of 2 to 10 µM. Also, in experiment [2], the IC50 was less than 0.01 µM.
Taken in the same sequence, the figures for `CCCCCC/C=C/C(=O)N[C@@H](CCCNC(=N)N[N+](=O)[O-])C(=O)N[C@@H](CC(C)C)B(O)O` [E.2.19, Boronic acid, [(1R)-1-[[(2S)-5-[[imino(nitroamino)methyl]amino]-2-[(non-2-enoyl)amino]-1-oxopentyl]amino]-3-methylbutyl]] were 2 to 10 µM and less than 0.01 µM.
For `CC(C)C[C@H](NC(=O)[C@H](CCCNC(=N)N[N+](=O)[O-])NC(=O)C1CCCCC1C)B(O)O` (stereo partly drawn) [E.2.20, Boronic acid, [(1R)-1-[[(2S)-5-[[imino(nitroamino)methyl]amino]-2-[(2-methylcyclohexanecarbonyl)amino]-1-oxopentyl]amino]-3-methylbutyl]] the same measures were 2 to 10 µM and less than 0.01 µM.
For `CCCC/C=C/C(=O)N[C@@H](CCCNC(=N)N[N+](=O)[O-])C(=O)N[C@@H](CC(C)C)B(O)O` [E.2.21, Boronic acid, [(1R)-1-[[(2S)-5-[[imino(nitroamino)methyl]amino]-2-[(hept-2-enoyl)amino]-1-oxopentyl]amino]-3-methylbutyl]] the same measures were 2 to 10 µM and less than 0.01 µM.
On to `Cc1ccc(OCC(=O)N[C@@H](CCCNC(=N)N[N+](=O)[O-])C(=O)N[C@@H](CC(C)C)B(O)O)cc1C` [E.2.22, Boronic acid, [(1R)-1-[[(2S)-5-[[imino(nitroamino)methyl]amino]-2-[[2-(3,4-dimethylphenoxy)acetyl]amino]-1-oxopentyl]amino]-3-methylbutyl]], for which, in experiment [1], the EC50 lay in the range of 0.2 to 2 µM. The molecule also returned an IC50 in experiment [2] of less than 0.01 µM.
Taken in the same sequence, the figures for `CC(C)C[C@H](NC(=O)[C@H](CCCNC(=N)N[N+](=O)[O-])NC(=O)C1CC2CCC1C2)B(O)O` (stereo partly drawn) [E.2.25, Boronic acid, [(1R)-1-[[(2S)-5-[[imino(nitroamino)methyl]amino]-2-[(bicyclo[2.2.1]heptane-2-carbonyl)amino]-1-oxopentyl]amino]-3-methylbutyl]] were 2 to 10 µM and less than 0.01 µM.
For `CC(C)CCCC(=O)N[C@@H](CCCNC(=N)N[N+](=O)[O-])C(=O)N[C@@H](CC(C)C)B(O)O` [E.2.26, Boronic acid, [(1R)-1-[[(2S)-5-[[imino(nitroamino)methyl]amino]-2-[(5-methylhexanoyl)amino]-1-oxopentyl]amino]-3-methylbutyl]] the same measures were more than 10 µM and less than 0.01 µM.
For `Cc1nc(C)c(C(=O)N[C@@H](CCCNC(=N)N[N+](=O)[O-])C(=O)N[C@@H](CC(C)C)B(O)O)s1` [E.2.27, Boronic acid, [(1R)-1-[[(2S)-5-[[imino(nitroamino)methyl]amino]-2-[(2,4-dimethylthiazole-5-carbonyl)amino]-1-oxopentyl]amino]-3-methylbutyl]] the same measures were more than 10 µM and less than 0.01 µM.
`CC(C)C[C@H](NC(=O)[C@H](CCCNC(=N)N[N+](=O)[O-])NC(=O)c1ccoc1)B(O)O` [E.2.28, Boronic acid, [(1R)-1-[[(2S)-5-[[imino(nitroamino)methyl]amino]-2-[(furan-3-carbonyl)amino]-1-oxopentyl]amino]-3-methylbutyl]]: the EC50 in experiment [1] is more than 10 µM. Further, in experiment [2], the IC50 is less than 0.01 µM.
Regarding `CC(C)C[C@H](NC(=O)[C@H](CCCNC(=N)N[N+](=O)[O-])NC(=O)CC1CCCCCC1)B(O)O` [E.2.29, Boronic acid, [(1R)-1-[[(2S)-5-[[imino(nitroamino)methyl]amino]-2-[(2-cycloheptylacetyl)amino]-1-oxopentyl]amino]-3-methylbutyl]], the EC50 in experiment [1] fell in the range of 2 to 10 µM. This molecule also showed an IC50 in experiment [2] of less than 0.01 µM.
Taken in the same sequence, the figures for `CC(C)CC(=O)N[C@@H](CCCNC(=N)N[N+](=O)[O-])C(=O)N[C@@H](CC(C)C)B(O)O` [E.2.31, Boronic acid, [(1R)-1-[[(2S)-5-[[imino(nitroamino)methyl]amino]-2-[(3-methylbutanoyl)amino]-1-oxopentyl]amino]-3-methylbutyl]] were more than 10 µM and less than 0.01 µM.
Taken in the same sequence, the figures for `CC(C)C[C@H](NC(=O)[C@H](CCCNC(=N)N[N+](=O)[O-])NC(=O)CCc1ccccc1)B(O)O` [E.2.32, Boronic acid, [(1R)-1-[[(2S)-5-[[imino(nitroamino)methyl]amino]-2-[(3-phenylpropanoyl)amino]-1-oxopentyl]amino]-3-methylbutyl]] were more than 10 µM and less than 0.01 µM.
With `Cc1cccc(/C=C/C(=O)N[C@@H](CCCNC(=N)N[N+](=O)[O-])C(=O)N[C@@H](CC(C)C)B(O)O)c1` [E.2.33, Boronic acid, [(1R)-1-[[(2S)-5-[[imino(nitroamino)methyl]amino]-2-[[(E)-3-(3-methylphenyl)acryl]amino]-1-oxopentyl]amino]-3-methylbutyl]], in experiment [1], the EC50 lay within 2 to 10 µM. In experiment [2], the IC50 is less than 0.01 µM.
Take `CC(C)C[C@H](NC(=O)[C@H](CCCNC(=N)N[N+](=O)[O-])NC(=O)CC12CC3CC(CC(C3)C1)C2)B(O)O` [E.2.34]: in experiment [1], the EC50 lay in the range of 2 to 10 µM. In addition, in experiment [2], the IC50 is less than 0.01 µM.
Taken in the same sequence, the figures for `CC(C)C[C@H](NC(=O)[C@H](CCCNC(=N)N[N+](=O)[O-])NC(=O)Cc1ccccc1)B(O)O` [E.2.36, Boronic acid, [(1R)-1-[[(2S)-5-[[imino(nitroamino)methyl]amino]-2-[(2-phenylacetyl)amino]-1-oxopentyl]amino]-3-methylbutyl]] were more than 10 µM and less than 0.01 µM.
Taken in the same sequence, the figures for `COc1ccc(CC(=O)N[C@@H](CCCNC(=N)N[N+](=O)[O-])C(=O)N[C@@H](CC(C)C)B(O)O)cc1` [E.2.37, Boronic acid, [(1R)-1-[[(2S)-5-[[imino(nitroamino)methyl]amino]-2-[[2-(4-methoxyphenyl)acetyl]amino]-1-oxopentyl]amino]-3-methylbutyl]] were more than 10 µM and less than 0.01 µM.
For `CC(C)C[C@H](NC(=O)[C@H](CCCNC(=N)N[N+](=O)[O-])NC(=O)Cc1ccc(Br)cc1)B(O)O` [E.2.38, Boronic acid, [(1R)-1-[[(2S)-5-[[imino(nitroamino)methyl]amino]-2-[[2-(4-bromophenyl)acetyl]amino]-1-oxopentyl]amino]-3-methylbutyl]] the same measures were 2 to 10 µM and less than 0.01 µM.
Regarding `Cc1ccc(F)c(C(=O)N[C@@H](CCCNC(=N)N[N+](=O)[O-])C(=O)N[C@@H](CC(C)C)B(O)O)c1` [E.2.40, Boronic acid, [(1R)-1-[[(2S)-5-[[imino(nitroamino)methyl]amino]-2-[(2-fluoro-5-methylbenzoyl)amino]-1-oxopentyl]amino]-3-methylbutyl]], in experiment [1], the EC50 was in the range of 2 to 10 µM. Moreover, in experiment [2], the IC50 is less than 0.01 µM.
Taken in the same sequence, the figures for `CC(C)C[C@H](NC(=O)[C@H](CCCNC(=N)N[N+](=O)[O-])NC(=O)CC1CC2CCC1C2)B(O)O` (stereo partly drawn) [E.2.41, Boronic acid, [(1R)-1-[[(2S)-5-[[imino(nitroamino)methyl]amino]-2-[[2-(bicyclo[2.2.1]hept-2-yl)acetyl]amino]-1-oxopentyl]amino]-3-methylbutyl]] were more than 10 µM and less than 0.01 µM.
Taken in the same sequence, the figures for `CC(C)C[C@H](NC(=O)[C@H](CCCNC(=N)N[N+](=O)[O-])NC(=O)CCCOc1ccccc1)B(O)O` [E.2.42, Boronic acid, [(1R)-1-[[(2S)-5-[[imino(nitroamino)methyl]amino]-2-[(4-phenoxybutanoyl)amino]-1-oxopentyl]amino]-3-methylbutyl]] were more than 10 µM and less than 0.01 µM.
Taken in the same sequence, the figures for `CCCCCCCCCCCCC(=O)N[C@@H](CCCNC(=N)N[N+](=O)[O-])C(=O)N[C@@H](CC(C)C)B(O)O` [E.2.45, Boronic acid, [(1R)-1-[[(2S)-5-[[imino(nitroamino)methyl]amino]-2-[(tridecanoyl)amino]-1-oxopentyl]amino]-3-methylbutyl]] were less than 0.2 µM and less than 0.01 µM.
Take `CC(C)C[C@H](NC(=O)[C@H](CCCNC(=N)N[N+](=O)[O-])NC(=O)CCCCCCCc1ccccc1)B(O)O` [E.2.46, Boronic acid, [(1R)-1-[[(2S)-5-[[imino(nitroamino)methyl]amino]-2-[(8-phenyloctanoyl)amino]-1-oxopentyl]amino]-3-methylbutyl]]: the EC50 in experiment [1] was in the range of 0.2 to 2 µM. In addition, the IC50 in experiment [2] was less than 0.01 µM.
Regarding `CC(C)C[C@H](NC(=O)[C@H](CCCNC(=N)N[N+](=O)[O-])NC(=O)CCC(=O)c1ccc(S(C)(=O)=O)cc1)B(O)O` [E.2.47, Boronic acid, [(1R)-1-[[(2S)-5-[[imino(nitroamino)methyl]amino]-2-[[4-(4-methanesulfonylphenyl)-4-oxobutanoyl]amino]-1-oxopentyl]amino]-3-methylbutyl]], the EC50 in experiment [1] was more than 10 µM. For the same molecule, the IC50 in experiment [2] is less than 0.01 µM.

These data come from patent publication US8546608B2, “Proteasome inhibitors and methods of using the same” (Cephalon, Inc., priority 2003, dated 2013).
